{"source": "patent EP3753563A1", "about": "“ANTI-HERPESVIRUS GUANOSINE ANALOGUE FOR THE INHIBITION OF BASAL AUTOPHAGY” (Helmholtz-Zentrum für Infektionsforschung GmbH, priority 2019, dated 2020)", "key": {"[1]": {"system": "A549 GFP-LC3B reporter cells", "test": "High-content GFP-LC3B puncta analysis in fed or starved A549 reporter cells", "format": "cell-based, human", "description": "(§1) For the single reporter analyses of figure 1 A549 stably transduced with a retroviral GFP LC3 fusion vector were used, for the tandem reporter analyses of figure 2 NIH mouse fibroblasts stably transduced with a retroviral RFP-GFP-LC3B fusion construct were employed. Cells were seeded on 96-well plates at a density of 3.5 x 10^4 cells per well in 100 µL of their respective growth medium (DMEM for NIH3T3 and F-12K for A549, respectively). The plates were left at room temperature for one hour without moving them to guarantee an even distribution of the cells on the well bottom and then cultured over night at 37 °C and 5% CO2.\n(§2) On the next day, compounds were added at the appropriate concentration in either 100 µL of their normal fed medium or 100 µL of Hank's balanced salt solution (HBSS) to induce starvation and then cultured at 37 °C and 5% CO2 for 3 h or 1.5 h respectively. Subsequently, cells were carefully washed once with phosphate buffered saline (PBS), fixed in 4% formaldehyde for 20 min at room temperature and washed again twice with PBS. Nuclear staining was performed using 0.05% Hoechst 33342 solution in PBS for 10 min at room temperature.\nAfter another two times of washing in PBS, cells could be stored in PBS at 4 °C and were ready for measurement with the automatic fluorescence microscope (ImageXpress Micro XLS Widefield High-Content Imaging system). For each well, images at nine different sites were taken automatically (60x objective, magnification 600x). […]\nDuplicate samples were analyzed comprising 500-1000 cells/well, which represents a coverage of at least 2%/well. Analyses were performed using the Transfluor modul of MetaXpress 6 software (Molecular Devices) with the following settings: vesicle width 0.5 µm - 5 µm and necessary intensity above local background 2000 gray levels determined from the FITC or 500 gray levels determined from the Texas Red image. Size of nuclei 5 µm - 30 µm and necessary intensity above local background 2000 gray levels determined from the DAPI image."}, "[2]": {"system": "3T3 fibroblasts harbor a RFP-GFP-LC3B tandem reporter construct", "test": "RFP-GFP-LC3B tandem reporter analysis of autophagic flux", "format": "cell-based, mouse", "settings": "for mode of autophagy modulation: mouse 3T3 fibroblasts", "description": "as §1, §2\nAfter another two times of washing in PBS, cells could be stored in PBS at 4 °C and were ready for measurement with the automatic fluorescence microscope (ImageXpress Micro XLS Widefield High-Content Imaging system). For each well, images at nine different sites were taken automatically (60x objective, magnification 600x). Exposure times were 150 ms for DAPI, 1000 ms for FITC (single reporter LC3) and 150 ms for DAPI, 1000 ms for FITC, 5000 ms for Texas Red (tandem reporter analysis).\nNIH/3T3 cells stably expressing RFP-GFP-LC3 were treated to induce or inhibit autophagy (for control) and with the compound in question and taken for image acquisition (described above). Between 120-160 cells were analyzed in each quantification for vesicular, red spot numbers and colocalization of punctate red/green signals using the Gen5 software package (BioTek). Average values are shown.\nIn this assay, red spot numbers correlate with total LC3 autophagic particles, yellow colocalization parallels the number of autophagosomes/phagophores."}, "HSV": {"system": "HSV", "settings": "read-out: EC 50 concentration for HSV inhibition; cited from earlier work"}, "[3]": {"system": "wt and mutant ATG4D^G1288A Lagotto Romagnolo dog fibroblasts", "test": "LC3 Western blot of basal and induced autophagy in dog fibroblasts (NVSD model)", "format": "cell-based", "description": "Induction (starvation in Earle's Balanced Salt Solution (EBSS)) increases autophagy activity, as detected by formation of the marker LC3-II. Since autophagy consists of several steps and the last one is a degradation step, a block must be set in order to assess the proportion of the synthesis/maturation step more precisely. To this end, Bafilomycin A1 (BafA1) is added to the cells. BafA1 inhibits the fusion of autophagosomes to autolysosomes and then the degradation of the vesicle content. The comparison +/- Baf A1 is used to measure the autophagy flux. Since BafA1 inhibits the degradation of vesicle contents, LC3-II determination in WBs can be used to determine the rate of autophagosome production/maturation (corresponding to the early to middle part of the autophagy process) and the rate of autolysosomal degradation (late phase), i.e. the total degradation capacity.\nA reference sample was loaded onto each gel to compare the results of different gels. The reference sample consists of WT cells grown in full medium conditions without any treatment. Graphs show expression levels of LC3-II normalized to the loading control (tubulin) and the reference sample and represent mean + SEM.\nFibroblasts from affected dogs and age-, breed-, and sex-matched controls were cultured in high glucose Dulbecco's Modified Eagle Medium (DMEM 41965-039 Gibco) with 10% fetal bovine serum (FBS 10500056 Gibco) and penicillin-streptomycin (PenStrep15140122 Gibco). During second or third passages, cells were seeded at equal density onto Petri dishes and additionally onto glass cover slips. […] Beta actin was used as the loading control for relative quantification of the blots (anti-beta Actin PA5-16914 Thermo Fischer Scientific). Signals were visualized by enhanced chemiluminescence and further analyzed by densitometry. […]"}}}
{"molecule": "CC(=O)OCC(CCn1cnc2cnc(N)nc21)COC(C)=O", "note": "[Famciclovir]", "values": [{"measurement": "reduction of LC3 fluorescence compared to the control", "setting": "[1]; fed A549 cells, vesicular GFP 3h after treatment", "value": "2 -fold"}]}
{"molecule": "CCN(CC)CCCC(C)Nc1ccnc2cc(Cl)ccc12", "note": "(stereo not shown) [Chloroquine]", "values": [{"measurement": "mode of autophagy modulation", "setting": "[2]", "value": "late inhibition"}, {"measurement": "total LC3 containing autophagic particle numbers compared to the control", "setting": "[2]; red spot numbers, 2 µM Chloroquine, 120-160 cells", "value": "increased"}]}
{"molecule": "Nc1nc2c(ncn2COCCO)c(=O)[nH]1", "note": "[compound A2, aciclovir]", "values": [{"measurement": "EC50", "setting": "HSV", "value": 1.3, "unit": "µM"}, {"measurement": "LC3-II levels of basal autophagy", "setting": "[3]; mutant LR cells, 1 µM A2, two hours, with BafA1", "value": "diminishes LC3-II levels of basal autophagy in mutant LR cells to level observed in wt cells"}, {"measurement": "LC3 levels induced by starvation", "setting": "[3]; starvation in EBSS, 1 µM A2 (lanes 4 and 8)", "value": "nearly unaltered"}, {"measurement": "LC3 I", "setting": "[3]; treated mutant cells, Western blot lanes 5 DMSO and A2", "value": "less LC3 I seems to be present"}, {"measurement": "reduction of the number of autolysosomes", "setting": "[2]; calculated by subtraction", "value": 4, "unit": "fold"}, {"measurement": "reduction of total autophagic particle numbers", "setting": "[2]; compared to the control", "value": 40, "unit": "%"}, {"measurement": "mode of autophagy modulation", "setting": "[2]", "value": "early inhibition of autophagy"}, {"measurement": "autophagosome/phagophores", "setting": "[2]; yellow colocalization", "value": "slight increase"}, {"measurement": "amount of membrane-bound GFP-LC3 compared to the control", "setting": "[1]; fed cells (basal autophagy), 3 h, LC3-positive vesicle area per cell", "value": 60, "unit": "%"}, {"measurement": "inhibition of induced autophagy", "setting": "[1]; starved cells, 1.5 h", "value": "does not inhibit induced autophagy"}]}
